pEC50, pIC50: −log10 of the molar value.
Tests used:
[1] = target: T1, cloned human δ receptor (HDELTA) (Homo sapiens, UniProt P41143); assay: Binding assay, displacement of radioligand on membranes of 293S cells expressing cloned human δ receptor; conditions: 293S cell membranes
T1 construct: expressed in transfected cells; host or cells: human 293S (HEK-293S) cells, geneticin-selected

[2] = target: T2, delta receptors, rat brain membranes (Rattus norvegicus, UniProt P33533); assay: GTP[γ]35S binding functional assay, homogenised rat brain; assay type: biochemical
T2 construct: from tissue; host or cells: rat brain homogenate
Experimental: (§1) • A. Human 293S cells expressing cloned human μ, δ, and κ receptors and neomycin resistance were grown in suspension at 37° C. and 5% CO2 in shaker flasks containing calcium-free DMEM 10% FBS, 5% BCS, 0.1% Pluronic F-68, and 600 μg/ml geneticin. • B. Mouse and rat brains were weighed and rinsed in ice-cold PBS (containing 2.5 mM EDTA, pH 7.4). The brains were homogenized with a polytron for 15 sec (mouse) or 30 sec (rat) in ice-cold lysis buffer (50 mM Tris, pH 7.0, 2.5 mM EDTA, with phenylmethylsulfonyl fluoride added just prior use to […] from a 0.5M stock in DMSO:ethanol). Membrane Preparation
(§2) The agonist activity of the compounds is measured by determining the degree to which the compounds receptor complex activates the binding of GTP to G-proteins to which the receptors are coupled. In the GTP binding assay, GTP[γ]^35S is combined with test compounds and membranes from HEK-293S cells expressing the cloned human opioid receptors or from homogenised rat and mouse brain. Agonists stimulate GTP[γ]^35S binding in these membranes. The EC50 and Emax values of compounds are determined from dose-response curves. Right shifts of the dose response curve by the delta antagonist naltrindole are performed to verify that agonist activity is mediated through delta receptors.

[3] = target: T1, cloned human δ receptor (HDELTA); assay: GTP[γ]35S binding functional assay, membranes from HEK-293S cells expressing cloned human opioid receptors; assay type: biochemical
Experimental: as §1
Cells were pelleted and resuspended in lysis buffer (50 mM Tris, pH 7.0, 2.5 mM EDTA, with PMSF added just prior to use to 0.1 mM from a 0.1 M stock in ethanol), incubated on ice for 15 min, then homogenized with a polytron for 30 sec. The suspension was spun at 1000 g (max) for 10 min at 4° C. The supernatant was saved on ice and the pellets resuspended and spun as before. The supernatants from both spins were combined and spun at 46,000 g (max) for 30 min. The pellets were resuspended in cold Tris buffer (50 mM Tris/Cl, pH 7.0) and spun again. The final pellets were resuspended in membrane buffer (50 mM Tris, 0.32 M sucrose, pH 7.0). Aliquots (1 ml) in polypropylene tubes were frozen in dry ice/ethanol and stored at −70° C. until use. The protein concentrations were determined by a modified Lowry assay with sodium dodecyl sulfate.
as §2

[4] = target: T3, delta receptors, mouse brain membranes (Mus musculus, UniProt P32300); assay: GTP[γ]35S binding functional assay, homogenised mouse brain; assay type: biochemical
T3 construct: from tissue; host or cells: mouse brain homogenate
Experimental: as §1, §2

T1 sequence (P41143 whole entry): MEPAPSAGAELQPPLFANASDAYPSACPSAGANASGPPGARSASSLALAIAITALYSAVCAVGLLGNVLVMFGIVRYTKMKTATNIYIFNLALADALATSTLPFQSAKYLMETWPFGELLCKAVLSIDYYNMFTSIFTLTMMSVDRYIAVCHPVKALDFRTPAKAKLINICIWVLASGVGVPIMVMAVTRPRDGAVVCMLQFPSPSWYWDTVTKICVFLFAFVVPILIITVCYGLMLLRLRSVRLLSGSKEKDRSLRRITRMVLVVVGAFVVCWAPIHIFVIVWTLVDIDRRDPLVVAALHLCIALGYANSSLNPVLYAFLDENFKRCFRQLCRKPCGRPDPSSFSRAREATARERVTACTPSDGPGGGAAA
T3 sequence (P32300 whole entry): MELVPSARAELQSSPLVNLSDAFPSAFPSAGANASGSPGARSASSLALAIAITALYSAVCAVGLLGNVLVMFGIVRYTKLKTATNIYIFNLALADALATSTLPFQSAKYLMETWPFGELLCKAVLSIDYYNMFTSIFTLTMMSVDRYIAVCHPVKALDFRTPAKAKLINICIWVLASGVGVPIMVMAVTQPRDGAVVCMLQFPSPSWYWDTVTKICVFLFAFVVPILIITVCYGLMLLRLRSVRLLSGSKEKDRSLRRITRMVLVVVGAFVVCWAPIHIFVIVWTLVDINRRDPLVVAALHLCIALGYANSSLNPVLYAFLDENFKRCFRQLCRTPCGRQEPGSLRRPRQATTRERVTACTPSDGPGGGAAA
T2 sequence (P33533 whole entry): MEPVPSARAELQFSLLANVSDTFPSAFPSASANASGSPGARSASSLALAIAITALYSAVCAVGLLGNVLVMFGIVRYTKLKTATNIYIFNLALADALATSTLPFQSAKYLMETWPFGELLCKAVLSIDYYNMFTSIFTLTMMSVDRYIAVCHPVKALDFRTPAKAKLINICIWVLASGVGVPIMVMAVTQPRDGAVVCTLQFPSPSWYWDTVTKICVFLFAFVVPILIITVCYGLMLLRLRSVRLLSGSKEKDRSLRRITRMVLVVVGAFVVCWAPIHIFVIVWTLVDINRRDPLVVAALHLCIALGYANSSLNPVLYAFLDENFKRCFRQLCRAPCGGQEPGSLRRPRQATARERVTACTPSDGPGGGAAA

| SMILES | pIC50 [1] | pEC50 [2] | Emax [2] | pEC50 [3] | Emax [3] | pEC50 [4] | Emax [4] |
| --- | --- | --- | --- | --- | --- | --- | --- |
| CCN(CC)C(=O)c1ccc(C(=C2CCN(Cc3ccoc3)CC2)c2cccc(C(N)=O)c2)cc1 [5c] | 9.61 | 9.44 | 170% |  |  |  |  |
| CCN(CC)C(=O)c1ccc(C(=C2CCN(Cc3ccco3)CC2)c2cccc(C(N)=O)c2)cc1 [5b] | 9.55 | 9.20 | 149% |  |  |  |  |
| CCN(CC)C(=O)c1ccc(C(=C2CCN(Cc3ccsc3)CC2)c2cccc(C(N)=O)c2)cc1 [5e, N,N-Diethyl-4-[1-(3-thiophene)methyl-piperidin-4-ylidene-(3-carbamoylphenyl)-methyl]-benzamide] | 9.63 |  |  |  |  |  |  |
| CCN(CC)C(=O)c1ccc(C(=C2CCN(Cc3ccccc3)CC2)c2cccc(C(N)=O)c2)cc1 [3b, N,N-Diethyl-4-[1-benzylpiperidin-4-ylidene(3-carbamoylphenyl)-methyl]-benzamide] | 9.26 | 9.39 | 179% | 10.04 | 93.8% | 9.27 | 165% |
| CCN(CC)C(=O)c1ccc(C(=C2CCN(Cc3cccs3)CC2)c2cccc(C(N)=O)c2)cc1 [5a] | 9.43 | 9.21 | 181% | 9.80 | 98.1% | 9.09 | 170% |
| CCN(CC)C(=O)c1ccc(C(=C2CCN(Cc3ccccn3)CC2)c2cccc(C(N)=O)c2)cc1 [5d, N,N-Diethyl-4-[1-(2-pyridine)methyl-piperidin-4-ylidene-(3-carbamoylphenyl)-methyl]-benzamide] | 9.56 | 9.40 | 180% |  |  |  |  |
